Source: patent US10494384B2, “Urea peptoid boric acid compound, pharmaceutical composition thereof, preparation method therefor, and uses thereof” (Peking University, priority 2015, dated 2019)

test system: MGC803 stomach cancer cells; assay: anti-tumor activity in vitro (IC50), MTT; type: cell-based; details: Homo sapiens, MGC-803; MGC80-3, MTT, 72 h, value ± spread; read-out: IC50 (μM), growth of stomach cancer cells (MGC80-3)
Method: Cancer cells were cultured in vitro. When cell growth reached logarithmic phase, the cells were collected and centrifuged at 1000 rpm for 5 min, before the supernate was removed and the cells were suspended in a moderate amount of medium, and then the concentration of cell was adjusted to 3.5×10^4/mL. The cell suspension was added into a 96-well plate with 100 μL per well and cultured in a cell incubator (37° C., 5% CO2) for 24 h. Then test drugs of different end concentrations were added, and the negative control group was added DMSO (end concentration was 0.5%), while each group afforded three repetitive holes. After cultivation for another 72 h in the cell incubator, a solution containing 5 mg/ml MTT (20 μL) was added into each well and the 96-well plate was placed at 37° C. for 3 h. To each well was added 150 μL DMSO, after oscillation in a shaking table for 5 min, the optical density (OD) values at 492 nm/620 nm were measured. IC50 values were calculated by Prism Graphpad statistical software.

Row | IC50 [µM] | SMILES
1 | 0.139 ± 0.004 | CC(C)C[C@H](NC(=O)[C@H](Cc1ccccc1)NC(=O)N1CCc2ccccc2C1C)B(O)O (stereo partly drawn) [Example 39, N-L-phenylalanyl-L-leucine borate-N′-1-methyl-1,2,3,4-tetrahydroisoquinoline-urea]
2 | 0.143 ± 0.004 | CC(C)C[C@H](NC(=O)[C@@H](NC(=O)N1CCc2ccccc2C1)C(C)C)B(O)O [Example 42, N-L-valyl-L-leucine borate-N′-1,2,3,4-tetrahydroisoquinoline-urea]
3 | 0.139 ± 0.004 | CC[C@H](C)[C@H](NC(=O)N1CCc2ccccc2C1)C(=O)N[C@@H](CC(C)C)B(O)O [Example 44, N-L-isoleucyl-L-leucine borate-N′-1,2,3,4-tetrahydroisoquinoline-urea]
4 | 0.0244 ± 0.005 | CC(C)C[C@H](NC(=O)[C@H](CCc1ccccc1)NC(=O)N1CCc2ccccc2C1)B(O)O [Example 47, N-L-homophenylalanyl-L-leucine borate-N′-1,2,3,4-tetrahydroisoquinoline-urea]
5 | 0.111 ± 0.009 | CC(C)C[C@H](NC(=O)[C@H](Cc1ccc([N+](=O)[O-])cc1)NC(=O)N1CCc2ccccc2C1)B(O)O [Example 48, N-L-4-nitro-phenylalanyl-L-leucine borate-N′-1,2,3,4-tetrahydroisoquinoline-urea]
6 | 0.0401 ± 0.005 | CC(C)C[C@H](NC(=O)[C@H](CCC(N)=O)NC(=O)N1CCc2ccccc2C1)B(O)O [Example 49]
7 | > 100 | COc1ccc2c(c1)CN(C(=O)N[C@@H](Cc1ccccc1)C(=O)N[C@@H](CC(C)C)B(O)O)CC2 [Example 51, N-L-phenylalanyl-L-leucine borate-N′-7-methoxy-1,2,3,4-tetrahydroisoquinoline-urea]

The next lines start with the molecule.

Row | SMILES | IC50 [µM]
8 | CC(C)C[C@H](NC(=O)[C@H](Cc1ccccc1)NC(=O)N1CCCc2ccccc21)B(O)O [Example 38, N-L-phenylalanyl-L-leucine borate-N′-1,2,3,4-tetrahydroquinoline-urea] | 0.137 ± 0.011
9 | CC(C)C[C@H](NC(=O)[C@H](CC(C)C)NC(=O)N1CCc2ccccc2C1)B(O)O [Example 40, N-L-leucyl-L-leucine borate-N′-1,2,3,4-tetrahydroisoquinoline-urea] | 0.163 ± 0.008
10 | CC(C)C[C@H](NC(=O)[C@H](C)NC(=O)N1CCc2ccccc2C1)B(O)O [Example 41, N-L-alanyl-L-leucine borate-N′-1,2,3,4-tetrahydroisoquinoline-urea] | 0.134 ± 0.003
11 | CC(C)C[C@H](NC(=O)[C@H](Cc1ccc2ccccc2c1)NC(=O)N1CCc2ccccc2C1)B(O)O [Example 43, N-L-naphthylalanyl-L-leucine borate-N′-1,2,3,4-tetrahydroisoquinoline-urea] | 0.0173 ± 0.003
12 | CC(C)C[C@H](NC(=O)[C@H](Cc1c[nH]c2ccccc12)NC(=O)N1CCc2ccccc2C1)B(O)O [Example 45, N-L-tryptophanyl-L-leucine borate-N′-1,2,3,4-tetrahydroisoquinoline-urea] | 0.0092 ± 0.001
13 | CC(C)C[C@H](NC(=O)[C@H](Cc1ccccc1)NC(=O)N1CCc2ccc([N+](=O)[O-])cc2C1)B(O)O [Example 46, N-L-phenylalanyl-L-leucine borate-N′-7-nitro-1,2,3,4-tetrahydroisoquinoline-urea] | 0.0046
14 | COc1cc2c(cc1OC)CN(C(=O)N[C@@H](Cc1ccccc1)C(=O)N[C@@H](CC(C)C)B(O)O)CC2 [Example 50, N-L-phenylalanyl-L-leucine borate-N′-6,7-dimethoxy-1,2,3,4-tetrahydroisoquinoline-urea] | 0.0172 ± 0.002
15 | COc1ccc2c(c1)CCN(C(=O)N[C@@H](Cc1ccccc1)C(=O)N[C@@H](CC(C)C)B(O)O)C2 [Example 52, N-L-phenylalanyl-L-leucine borate-N′-6-methoxy-1,2,3,4-tetrahydroisoquinoline-urea] | 0.85 ± 0.106
16 | COc1cccc2c1CN(C(=O)N[C@@H](Cc1ccccc1)C(=O)N[C@@H](CC(C)C)B(O)O)CC2 [Example 53, N-L-phenylalanyl-L-leucine borate-N′-8-methoxy-1,2,3,4-tetrahydroisoquinoline-urea] | 2.24 ± 0.503
